# In patent US20150273027A1, “LIQUID PHARMACEUTICAL COMPOSITION OF FACTOR VII POLYPEPTIDE” (Novo Nordisk Healthcare AG, priority 2012, published 2015):
# Changes are numbered by the printed parent chain.
# What was measured:
# SF-rFVIIa = target: T1, SF-rFVIIa (Homo sapiens, UniProt P08709); assay: Isothermal titration calorimetry (iTC200) binding to SF-rFVIIa; conditions: for Kd: SF-rFVIIa
# T1 construct: made in house
# T1 sequence (P08709 213-466 limits assumed): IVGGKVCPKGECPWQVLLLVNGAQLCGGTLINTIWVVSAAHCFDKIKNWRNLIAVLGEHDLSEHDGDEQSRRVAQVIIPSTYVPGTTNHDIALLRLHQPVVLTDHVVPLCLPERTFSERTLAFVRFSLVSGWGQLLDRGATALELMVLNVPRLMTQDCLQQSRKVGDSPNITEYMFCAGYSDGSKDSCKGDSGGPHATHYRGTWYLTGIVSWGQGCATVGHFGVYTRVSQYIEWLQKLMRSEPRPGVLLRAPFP
# T1 sequence (P08709 61-212 limits assumed): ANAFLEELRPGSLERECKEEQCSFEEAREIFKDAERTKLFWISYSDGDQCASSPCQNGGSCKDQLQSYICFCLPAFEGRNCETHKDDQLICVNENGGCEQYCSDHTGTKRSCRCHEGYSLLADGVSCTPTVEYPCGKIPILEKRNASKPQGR
# Description: (§1) All proteases were dialyzed extensively in binding buffer: 10 mM HEPES pH 7.4, 150 mM NaCl, 0.005% v/v Surfactant P20, 5 mM CaCl2. All binding experiments were carried out in binding buffer unless otherwise indicated. The active site stabilizing agent set forth Formula I was dissolved in 50 mM Tris pH 8.0 to a final concentration of 9 mM giving a yellow colour. Isothermal titration calorimetry (iTC200, from GE healthcare) was chosen as the method of choice for determining binding parameters. Each iTC200 run involved filling the cell with the protease (approximately 200 μL) and the syringe with the active site stabilizing agent (approximately 40 μL). Temperature was set as required and the protease was allowed to equilibrate under given experimental conditions (approximately 10 minutes). Typically 17-20 injections (of 2-2.5 μL) of active site stabilizing agent into the cell, containing protease, were performed. The first injection was always of 0.2 μL and was discarded from the final data analysis. Stirring speed was set between 700-1000 rpm. Filter period for data collection was 5 sec with a high feedback mode setting. Each titration was spaced by 120 sec. Raw data was processed to set the baseline, integrate each peak to get a final isotherm. This isotherm was fit to a single-site model to yield Kd, stoichiometry (n), ΔH, and ΔS values to complete characterization of binding of active site stabilizing agents to a protease. Each binding experiment was repeated at least twice. Tables 14, 15 and 16 summarizes binding of active site binding agents to SF-FVIIa and Vatreptacog alfa under varying solution conditions as described below.
# V158D/E296V/M298Q-FVIIa = target: T2, V158D/E296V/M298Q-FVIIa (Homo sapiens, UniProt P08709, E356V/M358Q/V218D); assay: Isothermal titration calorimetry (iTC200) binding to V158D/E296V/M298Q-FVIIa
# T2 construct: made in house
# T2 sequence (P08709 213-466 V218D/E356V/M358Q limits assumed): T1 sequence (P08709 213-466 limits assumed) with V6D, E144V, M146Q
# T2 sequence (P08709 61-212 limits assumed): T1 sequence (P08709 61-212 limits assumed)
# Description: as §1
# rFVIIa = target: T3, rFVIIa (Homo sapiens, UniProt P08709); assay: Isothermal titration calorimetry (iTC200) binding to rFVIIa; conditions: for Kd: binding buffer
# T3 construct: made in house
# T3 sequence (P08709 213-466 limits assumed): T1 sequence (P08709 213-466 limits assumed)
# T3 sequence (P08709 61-212 limits assumed): T1 sequence (P08709 61-212 limits assumed)
# Description: as §1
# [1] = tested on: tail bleeding in F8-KO mice; assay: Tail bleeding in FVIII knock out (F8-KO) mice; type: in vivo; conditions: dose 3 mg/kg i.v.
# Description: The biological in vivo efficacy and potency of recombinant factor VIIa (rFVIIa) co-formulated with the active site stabilizing agent with Formula I in the molar ratio 1:[…]; 2.5; 5; […] in FVIII knock out (F8-KO) mice (Bi L, Sarkar R, Naas T, Lawler A M, Pain J, Shumaker S L et al. Further characterization of factor VIII-deficient mice created by gene targeting: RNA and protein studies. Blood 1996; 88:3446-).
# Tail bleeding was initiated in Isofluran anesthetized F8-KO mice by transection of 4 mm of the tip of the tail 5 min after dosing rFVIIa, rFVIIa:active site stabilizing agent (1:1.75) or vehicle iv in a tail vein in the mice. Bleeding time and blood loss was measured for a 30 minutes period in 37° C. saline as described elsewhere (Elm T; Karpf D M; Øvlisen K; Pelzer H; Ezban M; Kjalke M; Tranholm M. Pharmacokinetics and pharmacodynamics of a new recombinant FVIII (N8) in haemophilia A mice. Haemophilia, 2012; 18 (1), 139-145). […] The bleeding time vs dose of rFVIIa and rFVIIa:active site stabilizing agent (1:1.75) show very similar dose response curves.
# The in vivo effect of serum free recombinant FVIIa (SF-rFVIIa) and SF-rFVIIa co-formulated with the active site stabilizing agent set forth in Formula I in the molar ratio 1:2.5 was studied with the same design in the tail bleeding model in F8-KO mice at the concentration 1; 2.5; 5; 10 and 15 mg/kg. […]
# [2] = iTC200, binding buffer pH 7.4, 20° C.
compound,measurement,setting,value
"COc1cccc([C@H](C)NC(=O)CNC(=O)Nc2ccc(C(=N)N)cc2)c1 [Formula A, S-2-[3-(4-Carbamimidoylphenyl)ureido]-N-[1-(3-methoxyphenyl)-ethyl]-acetamide, reference compound]",Kd,SF-rFVIIa; [2],1780 nM
"N=C(N)c1ccc2[nH]c(-c3cc(CC(=O)N[C@@H](CC(=O)O)C(=O)O)cc(-c4cc(S(N)(=O)=O)ccc4O)c3O)nc2c1 [Formula I, (S)-2-{2-[5-(5-carbamimidoyl-1H-benzoimidazol-2-yl)-6,2′-dihydroxy-5′-sulfamoyl-biphenyl-3-yl]acetylamino}-succinic acid]",fold difference in binding at 20° C. and 37° C.,V158D/E296V/M298Q-FVIIa,21 fold
same,Kd,"V158D/E296V/M298Q-FVIIa; binding buffer pH 7.4, 20° C.",2.18 nM
same,Kd,"V158D/E296V/M298Q-FVIIa; binding buffer, 37° C.",46 nM
same,Kd,"V158D/E296V/M298Q-FVIIa; pH 5.5, 20° C.",77 nM
same,Kd,"V158D/E296V/M298Q-FVIIa; pH 6.5, 20° C.",9 nM
same,Kd,"V158D/E296V/M298Q-FVIIa; pH 8.5, 20° C.",6 nM
same,fold difference in binding at 20° C. and 37° C.,SF-rFVIIa; SF-FVIIa,17 fold
same,Kd,"SF-rFVIIa; binding buffer, 37° C.",334 nM
same,Kd,SF-rFVIIa; [2],20 nM
same,Kd,"SF-rFVIIa; pH 5.5, 20° C.",1560 nM
same,Kd,"SF-rFVIIa; pH 6.5, 20° C.",43 nM
same,Kd,"SF-rFVIIa; pH 8.5, 20° C.",130 nM
same,fold difference in binding at 20° C. and 37° C.,rFVIIa,23 fold
same,Kd,rFVIIa; 20° C.,12.9 nM
same,Kd,rFVIIa; 37° C.,296 nM
"N=C(N)c1ccc2[nH]c(-c3cc(CC(=O)N[C@H](CC(=O)O)C(=O)O)cc(-c4cc(S(N)(=O)=O)ccc4O)c3O)nc2c1 [Formula II, (R)-2-{2-[5-(5-carbamimidoyl-1H-benzoimidazol-2-yl)-6,2′-dihydroxy-5′-sulfamoyl-biphenyl-3-yl]acetylamino}-succinic acid]",Kd,SF-rFVIIa; [2],12 nM
"Vatreptacog Alfa: FVIIa sequence variant, V158D/E296V/M298Q-FVII, three amino acids of the wild-type human sequence replaced","In vivo tail bleeding as blood loss, mean",[1],1207 nmol haemoglobin
